Legend:
PI3K alpha = PI3K alpha (Homo sapiens (Human), UniProt P42336); assay: Enzymatic PI3K alpha isoform inhibition (lipid kinase activity, Kinase-Glo luminescence); assay type: biochemical; settings: Enzymatic assay
How it was run: (§1)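 IC50s derive from 4-parameter logistic fits of % inhibition across 8 concentrations (usually 10 to 0.003 μM). Lipid kinase reaction: PI3K (10 nM) plus phosphatidylinositol (5 μg/mL) started with 2 μM ATP, stopped near 50% ATP depletion; leftover ATP quantified by Kinase-Glo luminescence.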

PI3K delta = PI3K delta (Homo sapiens (Human), UniProt O00329); assay: Enzymatic PI3K delta isoform inhibition (lipid kinase activity, Kinase-Glo luminescence); assay type: biochemical; settings: Enzymatic assay
Sequence of PI3K delta (O00329 other isoform, or with tags, fused parts or gaps linker GGGGGG): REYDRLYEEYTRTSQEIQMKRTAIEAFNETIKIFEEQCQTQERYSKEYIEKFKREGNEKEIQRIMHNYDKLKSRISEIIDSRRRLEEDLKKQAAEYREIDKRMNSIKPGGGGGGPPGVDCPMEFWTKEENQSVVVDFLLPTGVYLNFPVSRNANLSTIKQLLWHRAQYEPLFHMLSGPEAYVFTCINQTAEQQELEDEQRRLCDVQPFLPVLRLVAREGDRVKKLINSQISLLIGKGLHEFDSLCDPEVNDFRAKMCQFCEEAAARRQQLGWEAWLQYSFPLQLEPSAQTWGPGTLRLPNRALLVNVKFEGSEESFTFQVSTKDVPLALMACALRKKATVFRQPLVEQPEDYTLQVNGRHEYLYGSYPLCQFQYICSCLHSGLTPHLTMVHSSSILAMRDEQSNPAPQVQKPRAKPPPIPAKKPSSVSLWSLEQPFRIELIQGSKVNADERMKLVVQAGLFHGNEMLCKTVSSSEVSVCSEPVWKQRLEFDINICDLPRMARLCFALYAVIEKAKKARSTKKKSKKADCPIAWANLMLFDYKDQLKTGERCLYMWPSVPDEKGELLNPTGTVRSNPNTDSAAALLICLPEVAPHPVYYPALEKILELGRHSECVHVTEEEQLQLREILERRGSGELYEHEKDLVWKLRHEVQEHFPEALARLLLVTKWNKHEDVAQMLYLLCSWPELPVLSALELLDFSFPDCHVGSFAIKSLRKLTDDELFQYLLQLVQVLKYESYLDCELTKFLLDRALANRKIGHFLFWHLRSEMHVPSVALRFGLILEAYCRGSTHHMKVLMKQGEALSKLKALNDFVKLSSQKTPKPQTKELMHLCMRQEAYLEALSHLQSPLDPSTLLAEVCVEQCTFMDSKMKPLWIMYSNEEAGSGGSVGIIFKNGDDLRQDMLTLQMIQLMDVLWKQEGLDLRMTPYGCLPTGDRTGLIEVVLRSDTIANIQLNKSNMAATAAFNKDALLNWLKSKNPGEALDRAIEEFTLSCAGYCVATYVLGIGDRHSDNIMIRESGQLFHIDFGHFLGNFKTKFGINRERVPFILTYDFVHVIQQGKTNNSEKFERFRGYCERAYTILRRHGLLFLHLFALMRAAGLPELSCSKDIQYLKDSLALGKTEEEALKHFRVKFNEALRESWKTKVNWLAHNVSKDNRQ
How it was run: as §1

Sequence of PI3K alpha (P42336 other isoform, or with tags, fused parts or gaps): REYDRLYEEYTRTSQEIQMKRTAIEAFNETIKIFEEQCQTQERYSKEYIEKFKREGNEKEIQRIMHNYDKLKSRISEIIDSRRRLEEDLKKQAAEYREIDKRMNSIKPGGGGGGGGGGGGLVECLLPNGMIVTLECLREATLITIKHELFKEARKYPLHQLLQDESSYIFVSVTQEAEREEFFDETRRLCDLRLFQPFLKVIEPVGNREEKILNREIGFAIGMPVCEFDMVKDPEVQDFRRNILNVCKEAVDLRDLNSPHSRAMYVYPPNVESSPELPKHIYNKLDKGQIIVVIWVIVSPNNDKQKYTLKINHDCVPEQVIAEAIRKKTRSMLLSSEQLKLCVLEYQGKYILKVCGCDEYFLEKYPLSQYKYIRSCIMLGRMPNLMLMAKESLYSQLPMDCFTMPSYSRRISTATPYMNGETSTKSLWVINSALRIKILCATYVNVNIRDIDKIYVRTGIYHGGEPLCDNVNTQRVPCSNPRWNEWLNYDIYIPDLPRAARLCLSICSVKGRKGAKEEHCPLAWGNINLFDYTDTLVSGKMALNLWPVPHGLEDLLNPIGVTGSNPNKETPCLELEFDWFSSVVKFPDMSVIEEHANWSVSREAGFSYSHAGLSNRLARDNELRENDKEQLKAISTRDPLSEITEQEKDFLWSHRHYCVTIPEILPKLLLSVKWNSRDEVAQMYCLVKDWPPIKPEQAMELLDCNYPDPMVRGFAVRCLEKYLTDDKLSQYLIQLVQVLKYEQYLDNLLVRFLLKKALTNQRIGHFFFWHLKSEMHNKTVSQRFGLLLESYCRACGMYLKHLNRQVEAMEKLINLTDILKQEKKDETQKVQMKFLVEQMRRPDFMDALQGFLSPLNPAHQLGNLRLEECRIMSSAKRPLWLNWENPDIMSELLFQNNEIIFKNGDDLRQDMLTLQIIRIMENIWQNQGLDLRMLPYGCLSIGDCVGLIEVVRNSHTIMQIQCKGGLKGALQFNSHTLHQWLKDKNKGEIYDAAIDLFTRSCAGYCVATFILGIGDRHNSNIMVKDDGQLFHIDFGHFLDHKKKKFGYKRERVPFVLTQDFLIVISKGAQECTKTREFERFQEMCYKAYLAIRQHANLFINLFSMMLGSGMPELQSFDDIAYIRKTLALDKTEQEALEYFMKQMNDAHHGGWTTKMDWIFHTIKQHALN

Row | Structure (SMILES) | IC50 (PI3K alpha) [nM] | IC50 (PI3K delta) [nM]
1 | COc1ncc(N2CCOc3ccc(O[C@H]4CCN(C(=O)[C@@H]5CCN(C(C)=O)C5)C4)cc32)cc1C#N [K, 5-{6-[(S)-1-((R)-1-Acetyl-pyrrolidine-3-carbonyl)-pyrrolidin-3-yloxy]-2,3-dihydro-benzo[1,4]oxazin-4-yl}-2-methoxy-nicotinonitrile] | 393 | < 3
2 | COc1ncc(N2CCOc3ccc(O[C@H]4CCN(C(=O)C5CCOC5)C4)cc32)cc1C#N (single isomer, unassigned) [Example D28] | 411 | 5
3 | COc1ncc(N2CCOc3ccc(O[C@H]4CCN(C(=O)C5CCS(=O)(=O)C5)C4)cc32)cc1F (stereo partly drawn) [Example B101, (1,1-Dioxo-tetrahydro-1lambda*6*-thiophen-3-yl)-{(S)-3-[4-(5-fluoro-6-methoxy-pyridin-3-yl)-3,4-dihydro-2H-benzo[1,4]oxazin-6-yloxy]-pyrrolidin-1-yl}-methanone] | 471 | 15
4 | CS(=O)(=O)c1ncc(N2CCOc3ccc(O[C@H]4CCN(C(=O)[C@H]5CCOC5)C4)cc32)cc1C(F)F [Example B76, {(S)-3-[4-(5-Difluoromethyl-6-methanesulfonyl-pyridin-3-yl)-3,4-dihydro-2H-benzo[1,4]oxazin-6-yloxy]-pyrrolidin-1-yl}-(S)-tetrahydro-furan-3-yl-methanone] | 399 | 61
5 | COCC(=O)N1CC[C@H](Oc2ccc3c(c2)N(c2cnc(OC)c(F)c2)CCO3)C1 [Example B99, 1-{(S)-3-[4-(5-Fluoro-6-methoxy-pyridin-3-yl)-3,4-dihydro-2H-benzo[1,4]oxazin-6-yloxy]-pyrrolidin-1-yl}-2-methoxy-ethanone] | 302 | 57
6 | Cc1cc(N2CCOc3cnc(O[C@H]4CCN(C(=O)C5CCOCC5)C4)cc32)cnc1OC(F)F [Example E9, {(S)-3-[1-(6-Difluoromethoxy-5-methyl-pyridin-3-yl)-2,3-dihydro-1H-pyrido[3,4-b][1,4]oxazin-7-yloxy]pyrrolidin-1-yl}-(tetrahydro-pyran-4-yl)-methanone] | 593 | 7
7 | COc1ncc(N2CCOc3ccc(O[C@H]4CCN(C(=O)c5cncn5C)C4)cc32)cc1C [Example B88, {(S)-3-[4-(6-Methoxy-5-methyl-pyridin-3-yl)-3,4-dihydro-2H-benzo[1,4]oxazin-6-yloxy]-pyrrolidin-1-yl}-(3-methyl-3H-imidazol-4-yl)-methanone] | 234 | 8
8 | COc1ncc(N2CCOc3cnc(O[C@@H]4CCN(C(=O)C5CCS(=O)(=O)CC5)C4)cc32)cc1C [Example G2, (1,1-Dioxo-hexahydro-1lambda*6*-thiopyran-4-yl)-{(R)-3-[1-(6-methoxy-5-methyl-pyridin-3-yl)-2,3-dihydro-1H-pyrido[3,4-b][1,4]oxazin-7-yloxy]-pyrrolidin-1-yl}-methanone] | 1200 | 207
9 | COc1cc(N2CCOc3ccc(O[C@H]4CCN(C(=O)c5ccc(=O)[nH]c5)C4)cc32)cnc1Cl [Example B63, 5-{(S)-3-[4-(6-Chloro-5-methoxy-pyridin-3-yl)-3,4-dihydro-2H-benzo[1,4]oxazin-6-yloxy]-pyrrolidine-1-carbonyl}-1H-pyridin-2-one] | 1520 | 68
10 | CCC(=O)N1CC[C@H](Oc2ccc3c(c2)N(c2ccc([S+]([O-])CC)nc2)CCO3)C1 (stereo partly drawn) [Example B121, 1-{(S)-3-[4-(6-Ethanesulfinyl-pyridin-3-yl)-3,4-dihydro-2H-benzo[1,4]oxazin-6-yloxy]-pyrrolidin-1-yl}-propan-1-one] | 3360 | 75
11 | Cc1cc(N2CCOc3ccc(O[C@H]4CCN(C(=O)[C@H]5CC[C@H](O)CC5)C4)cc32)cnc1S(C)(=O)=O [Example B50, (4-Hydroxy-cyclohexyl)-{(S)-3-[4-(6-methanesulfonyl-5-methyl-pyridin-3-yl)-3,4-dihydro-2H-benzo[1,4]oxazin-6-yloxy]-pyrrolidin-1-yl}-methanone] | 933 | 13

— US9539260B2, “Dihydro-benzo-oxazine and dihydro-pyrido-oxazine derivatives” (Novartis AG, priority 2012, dated 2017)
